# No end group written: not given here.
# Experiments:
# [1] = system: monocrotaline (MCT)-induced pulmonary arterial hypertension mice; experiment: Monocrotaline-induced pulmonary arterial hypertension in mice; type: in vivo, mouse
# Experimental: (§1) Vascular smooth muscle cells (VSMCs) were homogenized in a minimal volume of 50 mM Tris-HCl, pH 7.4, supplemented with a broad-spectrum protease inhibitor cocktail (Calbiochem). The proteins were separated by SDS-PAGE and then transferred to polyvinylidene fluoride membranes (Schleicher & Schuell). After blocking with 5% (w/v) non-fat milk for 1 hour and washing with TBST, the membranes were incubated with antibodies against SERCA2a, SERCA2b (21st century biochemical), PCNA (abcam), GAPDH (Sigma-Aldrich), phospho-eNOS, eNOS, phospho-eIF2α, eIF2α (cell signaling), Vimentin, α-SMA, BMPR2 (Santa cruz), phospho-Akt, Akt (cell signaling), phospho-phospholamban (Merck), and Phospholamban (cell signaling). The membranes were then incubated with horseradish peroxidase-conjugated secondary antibodies (Jackson ImmunoResearch, West Grove, Pa., USA) and developed using a chemiluminescent substrate (Dogen). The blots were scanned and quantified using LAS software.
# As for mice, fifteen C57BL/6 mice (Damool science, Korea) weighing 25-30 g were treated with 600 mg/kg MCT five times a week. Out of the mice, eight animals for a comparison group were administered with ψPLB-SE peptide four times at intervals of one week from day 15 after the administration of MCT. Five animals for a control group were administered with a control peptide. The mice were sacrificed one week after last administration, and then histological analysis and molecular biological experiments were conducted.
# Pulmonary tissues were taken from animal models, fixed with 4% (w/v) paraformaldehyde for 5 days at room temperature, and then washed with PBS. After embedding the specimens in paraffin and sectioning the tissue blocks into a thickness of 7 μm, the sections were stained with haematoxylin and eosin (Sigma Aldrich) to investigate the vascular thickness and inflammation, and the sections were stained with Masson-trichrome (Sigma Aldrich) to investigate the extent of perivascular fibrosis, and then observed through an optical microscope.
# The pulmonary tissues were obtained from rats and mice, and the cytokine levels in the tissues were quantitatively analyzed using human proinflammatory 10plex Meso Scale Diagnostics plates (MSD; Rockville, Md.).
# Quantitative RT-PCR was performed using SYBR premix Ex Taq™ (Takara), though which the transcriptional levels of target genes were analyzed. RNA was isolated from pulmonary tissues using trizole (ambion), and synthesized into cDNA. Quantitative RT-PCR conditions were 40 cycles: 10 sec at 94° C., 30 sec at 59° C., and 10 sec at 72° C.
# [2] = system: balloon-injured rat carotid arteries; experiment: Balloon-induced injury of rat carotid artery; type: in vivo
# Text: The left common carotid artery was injured by an infiltration of 2F Fogarty balloon embolectomy catheter. In brief, the rats were anesthetized with isoflurane gas (70% N2O/30% O2), the left external carotid artery was exposed, and branches thereof were electro-coagulated. A catheter was inserted approximately 1 cm into the external carotid artery via a transverse arteriotomy, and endothelial denudation was achieved by three passes of the catheter along the common carotid artery. After removal of the catheter, the penetrated area was clamped, and 5 μg of the peptides solubilized in 200 μL of phosphate-buffered saline (PBS) was injected. After incubation for 15 minutes, the sealed carotid artery was re-opened to resume blood flow. The rats were allowed to recover for 10 days, unless otherwise stated. For histological analyses, the rats were anesthetized, and the common carotid artery was excised after transcardiac perfusion with heparinized saline containing 3.7% (w/v) formaldehyde. The specimens were embedded in paraffin, and paraffin blocks were sectioned with the Leica RM2255 rotary microtome. Two serial tissue sections (thickness, 4 μm) were obtained from the centre of the common carotid artery and stained with haematoxylin and eosin. The lamina, internal elastic lamina, and external elastic lamina were measured with the National Institutes of Health ImageJ software (version 1.62). The intimal and medial areas were determined by subtracting the laminal area from the internal elastic laminal area and by subtracting the internal elastic laminal area from the external elastic laminal area, respectively. The values from two serial sections per rat were averaged for analysis.
# The carotid artery was fixed in 4% (w/v) paraformaldehyde for 48 hours at room temperature and then washed with PBS. After embedding the specimens in paraffin and sectioning the tissue blocks, the sections were treated with hydrogen peroxide to quench endogenous peroxidase activity, followed by boiling in antigen retrieval buffer. […]
# SERCA2a = SERCA2a level and stability in RASMCs (immunostaining, western blotting); type: cell-based, rat; settings: synthetic conditions, 3 μM peptide
# Experimental: Rat aortic smooth muscle cells (RASMCs) were fixed in 4% (w/v) paraformaldehyde at room temperature for 10 min, washed with PBS, and then transmitted with 0.1% (v/v) Triton X-100 in PBS for 40 min. After washing and blocking with 3% (w/v) BSA in PBS, the cells were incubated overnight at room temperature with antibodies against SERCA2a (1:250), SERCA2b (1:250), and PCNA (1:50). On the following day, the cells were washed with PBS and incubated with anti-rabbit and anti-mouse IgG conjugated to Alexa Fluor 488 and 594, respectively, for 1 hour at room temperature. The cells were treated with FluoroGuard antifade reagent (Bio-Rad, Hercules, Calif., USA), and the coverslips were examined under a fluorescent microscope.
# as §1
# RASMCs were cultured in DMEM supplemented with 0.1% (v/v) FBS (Contractile) or in DMEM supplemented with 10% (v/v) FBS (Synthetic) in the presence of 3 μM control or ψPLB-SE peptide. Cycloheximide (Sigma) was added to media to a final concentration of 5 μg/ml. Cells were harvested after 0, 3, and 5 days of incubation and their protein extracts were subjected to western blotting.
sequence,measurement,setting,value
"RAETIEMPQ (not fully specified) [ψPLB-SE, 9-mer PP1 decoy peptide mimicking phosphorylated PLB; conjugated via GGG linker to cell penetrating peptide dNP2 or TAT]",expression level of SERCA2a,[1]; mouse pulmonary tissue,increased
same,fibrosis extent of vascular adventitia (Masson-trichrome staining),[1]; mouse pulmonary tissue,attenuated
same,"increases in the protein and mRNA expression of TGF-β, Collagen 1, vimentin, and α-SMA",[1]; mouse pulmonary tissue,attenuated
same,"proinflammatory cytokines (GM-CSF, TNF-α, IL-17, IL-1β, IL-6, TGF-β) levels",[1]; mouse pulmonary tissue,restored to nearly to the normal levels
same,eNOS phosphorylation level (eNOS activity),[1]; mouse pulmonary tissue proteins,increased
same,increase in vascular thickening (hematoxylin and eosin staining),"[1]; mouse pulmonary tissue, MCT 600 mg/kg, peptide via respiratory inhalation once a week for 4 weeks from the second week",attenuated
same,increase in monocyte infiltration,"[1]; mouse pulmonary tissue, hematoxylin and eosin staining",attenuated
same,"mRNA expression levels of TNF-α, IL-17, IL-1β, F4/80, and MCP-1","[1]; mouse pulmonary tissue, quantitative RT-PCR",reduced
same,"in vivo VSMC proliferation (α-SMA, PCNA immunostaining)","[2]; balloon-injured rat carotid artery, peptide administered to the injured site",inhibits
same,neointimal formation (haematoxylin and eosin staining),"[2]; balloon-injured rat carotid artery, peptide administered to the injured site, compared with control peptide",inhibited
same,reduction of SERCA2a level by balloon angioplasty-mediated injury (immunostaining),[2]; carotid artery sections,inhibited
same,SERCA2a reduction (immunostaining),SERCA2a,completely inhibited
same,reduction of SERCA2a (western blotting),SERCA2a,inhibited
same,stability of SERCA2a,SERCA2a; cycloheximide 5 μg/ml,restored nearly to the level observed under contractile conditions

# From patent US11426441B2, “Composition comprising protein phosphatase 1 inhibitory peptide for treating vascular diseases” (BethphaGen Inc., priority 2016, dated 2022)
